Data published in patent US11077102B2, “Multidose package, course and method of treatment for delivering predetermined multiple doses of a pharmaceutical” (BAUSCH HEALTH IRELAND LIMITED, priority 2009, dated 2021).
Each block holds one molecule with its values, some of them ahead of it.

Assay: Stability of formulation in multi-dose container (Rexam 2.05 mL Sof' Airless)
Format: physicochemical
Method: Once a candidate package is identified, stability trials are carried out to determine compatibility of the formulation with the container components. Testing is carried out on the formulation packed in the selected containers and stored under a number of controlled conditions (e.g., 40° C./75% RH and 25° C./60% RH) for a specified time up to the expiry date of the product. Tests will include determination of imiquimod content, preservative content, impurity content, appearance, microscopic examination, pH levels and visual container assessment against set standards.
Two batches of Aldara cream were dispensed into Rexam™ 2.05 mL Sof' Airless™ containers. The batches had been previously tested to determine the amount of preservatives (methyl hydroxybenzoate (MHB), propyl hydroxybenzoate (PHB) benzyl alcohol) and imiquimod, at the beginning of the study in Table 4 below.
The batches were stored under various conditions and then analyzed at 2 months, 4 months, 5.5 months and 13 months as shown in Tables 5 to 7 below. The presence of the contaminant 4-OH-R837 was also tested. NOTE: 4-OH-R837 is an Imiquimod impurity.

Benzyl alcohol levels in Aldara cream in multi-dose container (40 C/75% RH, up to 13 months, lower specification limit 1.00% w/w): just below the lower specification limit
Compound: OCc1ccccc1 [Benzyl alcohol, benzyl alcohol]

Compound: COC(=O)c1ccc(O)cc1 [MHB, methyl hydroxybenzoate]
Stability in Aldara cream in multi-dose container (up to and including 13 months, both 25 C/60% RH and 40 C/75% RH): good stability

Impurity level in Aldara cream in multi-dose container (up to and including 13 months): below detection limits
Compound: CC(C)Cn1cnc2c(=O)[nH]c3ccccc3c21 [4 Hydroxy Imipquimod, 4-Hydroxyimiquimod]
